# Data taken from ChEMBL document CHEMBL4270495, “Oleanane-, ursane-, and quinone methide friedelane-type triterpenoid derivatives: Recent advances in cancer treatment” (Eur J Med Chem, 2017).
# What was measured:
# [1] = test system: BJ; assay: Cytotoxicity in human BJ cells assessed as reduction in cell viability incubated for 72 hrs by MTT assay; assay type: functional, cell-based
# [2] = test system: HT-29; assay: Cytotoxicity in human HT-29 cells assessed as reduction in cell viability incubated for 72 hrs by MTT assay; assay type: functional, cell-based; conditions: HT-29, 72 h
# [3] = test system: HeLa; assay: Cytotoxicity in human HeLa cells assessed as reduction in cell viability incubated for 72 hrs by MTT assay; assay type: functional, cell-based
# [4] = test system: MCF7; assay: Cytotoxicity in human MCF7 cells assessed as reduction in cell viability incubated for 72 hrs by MTT assay; assay type: functional, cell-based; conditions: MCF7, 72 h
# [5] = test system: MCF7; assay: Cytotoxicity in human MCF7 cells assessed as reduction in cell viability; assay type: functional, cell-based
# [6] = test system: HepG2; assay: Cytotoxicity in human HepG2 cells assessed as reduction in cell viability; assay type: functional, cell-based
# [7] = test system: PC-3; assay: Cytotoxicity in human PC3 cells assessed as reduction in cell viability incubated for 48 hrs by SRB assay; assay type: functional, cell-based; conditions: PC-3, 48 h
# [8] = test system: MCF7; assay: Cytotoxicity in human MCF7 cells assessed as reduction in cell viability incubated for 48 hrs by SRB assay; assay type: functional, cell-based; conditions: MCF7, 48 h
# [9] = test system: A549; assay: Cytotoxicity in human A549 cells assessed as reduction in cell viability incubated for 48 hrs by SRB assay; assay type: functional, cell-based; conditions: A549, 48 h
# [10] = test system: HL-60; assay: Cytotoxicity in human HL60 cells assessed as reduction in cell viability incubated for 24 hrs by MTT assay; assay type: functional, cell-based; conditions: HL-60, 24 h
# [11] = Cytotoxicity in human BCP-ALL cells assessed as reduction in cell viability; assay type: functional, cell-based
# [12] = test system: T-ALL; assay: Cytotoxicity in human T-ALL cells assessed as reduction in cell viability; assay type: functional, cell-based
# [13] = test system: HL-60; assay: Cytotoxicity in human HL60 cells assessed as reduction in cell viability; assay type: functional, cell-based
# [14] = test system: Daudi; assay: Cytotoxicity in human Daudi cells assessed as reduction in cell viability; assay type: functional, cell-based
# [15] = test system: NCI-H1299; assay: Cytotoxicity in human NCI-H1299 cells assessed as reduction in cell viability; assay type: functional, cell-based
# [16] = Cytotoxicity in human A375-S2 cells assessed as reduction in cell viability incubated for 48 hrs by MTT assay; assay type: functional, cell-based; conditions: A375-S2, 48 h
# [17] = test system: HMEC; assay: Cytotoxicity in human HMEC cells assessed as reduction in cell viability incubated for 48 hrs by SRB assay; assay type: cell-based
# [18] = test system: MDA-MB-231; assay: Cytotoxicity in human MDA-MB-231 cells assessed as reduction in cell viability incubated for 24 hrs by MTT assay; assay type: functional, cell-based; conditions: MDA-MB-231, 24 h
# [19] = test system: MCF7; assay: Cytotoxicity in human MCF7 cells assessed as reduction in cell viability incubated for 24 hrs by MTT assay; assay type: functional, cell-based; conditions: MCF7, 24 h
# [20] = test system: 4T1; assay: Cytotoxicity in mouse 4T1 cells assessed as reduction in cell viability incubated for 24 hrs by MTT assay; assay type: functional, cell-based; conditions: 4T1, 24 h
# [21] = test system: Huh-7; assay: Cytotoxicity in human HuH7 cells assessed as reduction in cell viability incubated for 72 hrs by cell-titer Glo asay; assay type: functional, cell-based; conditions: Huh-7, 72 h
# [22] = test system: HepG2; assay: Cytotoxicity in human HepG2 cells assessed as reduction in cell viability incubated for 72 hrs by cell-titer Glo asay; assay type: functional, cell-based; conditions: HepG2, 72 h
# [23] = test system: Hep 3B2; assay: Cytotoxicity in human Hep3B cells assessed as reduction in cell viability incubated for 72 hrs by cell-titer Glo asay; assay type: functional, cell-based
# [24] = test system: BGC-823; assay: Cytotoxicity in human BGC823 cells assessed as reduction in cell viability incubated for 48 hrs by MTT assay; assay type: functional, cell-based; conditions: BGC-823, 48 h
# [25] = test system: HeLa; assay: Cytotoxicity in human HeLa cells assessed as reduction in cell viability incubated for 48 hrs by MTT assay; assay type: functional, cell-based
# [26] = test system: HepG2; assay: Cytotoxicity in human HepG2 cells assessed as reduction in cell viability incubated for 48 hrs by MTT assay; assay type: functional, cell-based; conditions: HepG2, 48 h
# [27] = test system: BGC-823; assay: Cytotoxicity in human BGC823 cells assessed as reduction in cell viability incubated for 72 hrs by MTT assay; assay type: functional, cell-based; conditions: BGC-823, 72 h
# [28] = test system: PC-3; assay: Cytotoxicity in human PC3 cells assessed as reduction in cell viability incubated for 72 hrs by MTT assay; assay type: functional, cell-based; conditions: PC-3, 72 h
# [29] = test system: COLO 205; assay: Cytotoxicity in human COLO205 cells assessed as reduction in cell viability incubated for 72 hrs by MTT assay; assay type: functional, cell-based; conditions: COLO 205, 72 h
# [30] = test system: H4; assay: Cytotoxicity in human H4 cells assessed as reduction in cell viability incubated for 72 hrs by MTT assay; assay type: functional, cell-based; conditions: H4, 72 h
# [31] = test system: Bel-7402; assay: Cytotoxicity in human Bel7402 cells assessed as reduction in cell viability incubated for 72 hrs by MTT assay; assay type: functional, cell-based; conditions: Bel-7402, 72 h
structure (smiles),measurement,setting,value
COC(=O)[C@]12CC[C@@H](C)[C@H](C)[C@H]1C1=CC(=O)[C@@H]3[C@@]4(C)C(C=O)=C[C@@](C)(COS(C)(=O)=O)[C@@H]4CC[C@@]3(C)[C@]1(C)CC2,IC50,[1],2430 nM
same,IC50,[2],590 nM
same,IC50,[3],240 nM
same,IC50,[4],650 nM
CC(=O)O/N=C1\CC[C@]2(C)[C@H]3CC=C4[C@@H]5[C@@H](C)[C@H](C)CC[C@]5(C(=O)O)CC[C@@]4(C)[C@]3(C)CC[C@H]2C1(C)C,IC50,[5],3400 nM
same,IC50,[6],4300 nM
CCC(=O)O[C@H]1CC[C@@]2(C)[C@@H](CC[C@]3(C)[C@@H]2CC=C2[C@@H]4[C@@H](C)[C@H](C)CC[C@]4(C)CC[C@]23C)[C@@]1(C)C(=O)O,IC50,[7],31000 nM
same,IC50,[8],29000 nM
same,IC50,[9],29000 nM
same,IC50,[10],14000 nM
CC1=C(O)C(=O)C=C2C1=CC=C1[C@@]2(C)CC[C@@]2(C)[C@@H]3C[C@](C)(C(=O)O)CC[C@]3(C)CC[C@]12C [CELASTROL],IC50,[11],< 1000 nM
same,IC50,[12],< 1000 nM
same,IC50,[13],< 1000 nM
same,IC50,[14],< 1000 nM
same,IC50,[15],< 1000 nM
CC1(C)CC[C@]2(C(=O)OCc3cn(-c4ccc([N+](=O)[O-])cc4)nn3)CC[C@]3(C)C(=CC[C@@H]4[C@@]5(C)CCC(=O)C(C)(C)[C@@H]5CC[C@]43C)[C@@H]2C1,IC50,[16],< 3000 nM
CC(=O)Oc1ccccc1C(=O)O[C@H]1CC[C@]2(C)[C@H]3CC=C4[C@@H]5[C@@H](C)[C@H](C)CC[C@]5(C(=O)O)CC[C@@]4(C)[C@]3(C)CC[C@H]2C1(C)C,IC50,[17],> 100000 nM
same,IC50,[18],63900 nM
same,IC50,[19],72200 nM
same,IC50,[20],62000 nM
CC1=C(O)C(=O)C=C2C1=CC=C1[C@@]2(C)CC[C@@]2(C)[C@@H]3C[C@](C)(C(=O)NCCc4ccccc4)CC[C@]3(C)CC[C@]12C,IC50,[21],1040 nM
same,IC50,[22],3580 nM
same,IC50,[23],1060 nM
CC(=O)O/N=C1\CC[C@]2(C)[C@H]3CC=C4[C@@H]5[C@@H](C)[C@H](C)CC[C@]5(C(=O)Nc5ccccc5C(=O)O)CC[C@@]4(C)[C@]3(C)CC[C@H]2C1(C)C,IC50,[24],9200 nM
same,IC50,[25],13800 nM
same,IC50,[26],23700 nM
CCCC(=O)O[C@H]1CC[C@]2(C)[C@H]3CC=C4[C@@H]5CC(C)(C)CC[C@]5(C(=O)n5ccc(=O)[nH]c5=O)CC[C@@]4(C)[C@]3(C)CC[C@H]2C1(C)C,IC50,[27],220 nM
same,IC50,[28],280 nM
"CC(=O)Oc1cc2c(c(C)c1OC(C)=O)C(S(=O)(=O)O)C=C1C2(C)CC[C@@]2(C)[C@@H]3C[C@](C)(C(=O)O)CC[C@]3(C)CC[C@]12C (single isomer, unassigned)",IC50,[29],60 nM
same,IC50,[30],1370 nM
same,IC50,[31],1730 nM
